Measurements reported in PMC4265539, “Inhibition of Neutrophil Collagenase/MMP-8 and Gelatinase B/MMP-9 and Protection against Endotoxin Shock” (Journal of Immunology Research, 2014).
Like-named read-outs stand apart in the source and are kept apart here. Non-standard residues stand in square brackets, D forms with d. Residues, ends and D or L forms follow the SMILES beside them. No end group written: not given here. Bip = N[C@@H](Cc1ccc(-c2ccccc2)cc1)C(=O)O; d3Pal = N[C@H](Cc1cccnc1)C(=O)O

Assays:
[1] = mouse, in vivo, ip, 150 mg/kg
Description: (§2) The concentration of P2-BSA that was used to coat the plates and the reagent concentration of the P2-specific polyclonal antibody were optimized by two-dimensional serial dilution tests. 96-well microtiter plates were coated with a solution of 6 μg/mL P2-BSA in 0.05 M sodium bicarbonate (pH 9.6) and the plate was kept overnight at 4°C. After washing the plate three times, the plate was blocked with 0.1 M PBS (pH 7.4) containing 10% (V/V) skim milk at 37°C for 1.5 h. To perform the competition ELISA between P2 and the immobilized P2-BSA, P2-specific antibody (1000 times serum dilution) was added to the wells in the presence of plasma or standard samples at 37°C for 1.5 h. After washing the plate three times, 100 μL of horseradish peroxidase-conjugated goat anti-rabbit IgG (1 : 2000) was added and incubated for 1 h at 37°C. After washing three times, the tetramethylbenzidine (TMB) substrate (100 μL/well) was added and the reaction was executed for 15 min. The reactions were stopped with 2 M sulfuric acid (50 μL/well). The absorbance of each well at 450 nm was detected with an automated ELISA reader. The calibration curve was expressed according to the fact that 1-B/B0 are linear with log C (where B0 is the OD value in the absence of P2 in plasma, B is the OD value at serial concentrations of P2 in plasma, and C is the P2 concentration, resp.). The indirect ELISA procedures were conducted in duplicate with a set of standard concentrations of P2 in diluted mouse serum in order to determine the mathematical fitting equation and linear detection range.
(§3) Adult female Swiss mice, 5 animals per group, were used for the pharmacokinetic studies. P2 (90 mg/kg, 30 mg/kg, or 10 mg/kg) was dissolved in sterile 0.9% saline and was administered intravenously. Blood samples were collected through the canthus at 0, 3, 6, 9, 12, 15, and 30 min. For intraperitoneal injection of P2, 150 mg/kg P2 dissolved in 0.9% saline was administered and blood samples were collected through the canthus at 0, 13, 20, 40, 68, 100, 127, and 168 minutes.
(§4) Blood samples were immediately centrifuged (12000 rpm for 30 seconds), and the supernatants were taken and diluted 10, 30, or 300 times with PBS, prewarmed at 80°C in a water bath. The diluted samples were kept at 80°C for another 30 min to remove enzyme activity of the plasma components. Samples were diluted with prewarmed PBS so that the final concentration of P2 was within the linear range of the standard line. After another centrifugation (12000 rpm for 2 min), the diluted samples were analyzed by ELISA to measure the plasma P2 concentrations.

[2] = test system: MMP-9; conditions: cited from earlier work
Text: Table 1 Peptide sequences and their IC50 values in μM against target enzymes. | column: MMP-9

[3] = test system: Swiss mice, LPS endotoxin shock; assay: Endotoxin shock mouse model, survival after LPS challenge; assay type: in vivo
Description: (§1) The protective effect of all inhibitors was evaluated in a similar way. P2 (90 mg/kg P2) was used at a similar molar concentration as Regasepin 2. The effect of lower dosages of P2 (30 mg/kg and 10 mg/kg) was also evaluated in parallel experiments. The details of the animal experiments, including grouping of mice, number of mice in each group, reagent concentrations, and ways of administration, are shown in Table 2. The peptides were administered intravenously 5 minutes after LPS injection.
The protective effects via intravenous injection were evaluated in groups of 6 mice, intravenously injected with 100 μL (7 mg/mL; 35 mg/kg) Regasepin 2 or Inhibitor 2 (35 mg/kg) 5 minutes after intravenous injection of LPS (200 μg per mouse). The numbers of surviving mice were recorded regularly after LPS administration. Kaplan-Meier survival curves were generated. P values were calculated compared with the survival rates of the negative control group. The experiments were performed two times.
Regasepin 2 via intravenous injection (35 mg/kg) was used as a positive control peptide. 200 μL P2 (15 mg/mL) was administered intraperitoneally (150 mg/kg) 30, 60, or 90 minutes before intravenous LPS challenge (200 μg per mouse) to evaluate the effect of P2 via this administration route. The protective effects of a single intravenous injection of P2 (10 mg/kg) and two times intravenous administration of P2 (10 mg/kg) with 2 hours interval were also included and compared.
Results were represented as mean ± SD. Statistical significance was assessed using statistics software SPSS13.0. Two-way analysis of variance (ANOVA) was used to test for differences between groups. For all statistical comparisons, positive groups were compared with negative controls, and ^* P < 0.05 or ^** P < 0.01 were considered statistically significant.

[4] = test system: TACE; conditions: cited from earlier work
Text: Table 1 Peptide sequences and their IC50 values in μM against target enzymes. | column: TACE

[5] = mouse, in vivo
Description: as §2, §3, §4

[6] = test system: MMP-8; conditions: cited from earlier work
Text: Table 1 Peptide sequences and their IC50 values in μM against target enzymes. | column: MMP-8

[7] = rat; cited from earlier work
Description: The pharmacokinetics of P2 by intraperitoneal injection was also investigated.

[8] = test system: Swiss mice, LPS endotoxin shock; conditions: 100 μL (7 mg/mL), 35 mg/kg iv 5 minutes after iv LPS, ref [9]; cited from earlier work
Description: as §1, with “ea ...” for “each group, reagent concentrations, and ways of administration, are shown in Table 2. The peptides were administered intravenously 5 minutes after LPS injection.”

CC[C@H](C)[C@H](NC(=O)CNC(=O)CNC(=O)CNC(=O)CNC(=O)[C@H](CCC(=O)O)NC(=O)CNC(=O)[C@H](CCCNC(=N)N)NC(=O)[C@H](Cc1ccc(-c2ccccc2)cc1)NC(=O)[C@@H](CS)NC(=O)[C@@H](Cc1cccnc1)NC(=O)[C@@H]1CCCN1)C(=O)N[C@H](C(=O)N[C@@H](CCCNC(=N)N)C(=O)N[C@@H](CCCNC(=N)N)C(=O)N[C@@H](C)C(=O)N[C@@H](CC(=O)O)C(=O)N[C@@H](CCCNC(=N)N)C(=O)N[C@@H](C)C(=O)N[C@@H](C)C(=O)N[C@H](C(=O)N1CCC[C@H]1C(=O)O)C(C)C)C(C)C [P2] (H-P[d3Pal][dC][Bip]RGEGGGGIVRRADRAAVP-OH; N-terminus and C-terminus assumed)
level at time molar at 100 min [1]: 1540 nM | IC50 ([2]; ref [10]): 1360 nM | Survival after two injections (G3) versus single injection (G2) ([3]; 10 mg/kg iv 5 minutes after LPS iv and again 2 hours later, n = 12, Figure 4(a) G3): less mice survived | Survival versus LPS-treated control group ([3]; single 10 mg/kg iv 5 minutes after LPS iv, n = 12, Figure 4(a) G2): significant difference with the LPS-treated control group | IC50 ([4]; ref [10]): 1950 nM | Time at which the peak plasma level was reached ([5]; ip, 150 mg/kg): ≤ 13 min | Time an effective P2 concentration (above 2 μM) remained in plasma ([5]; iv, 10 mg/kg): 6 min | Time the effective plasma concentration of P2 lasted ([5]; iv, 90 mg/kg): less than 30 minutes | IC50 ([6]; ref [10]): 350 nM

IVRRADRAAVP [ES-2]
IC50 ([2]; ref [10]): > 500000 nM | IC50 ([4]; ref [10]): > 500000 nM | IC50 ([6]; ref [10]): > 500000 nM

IVRRADRAAVPGGGGRGD [HM-3]
in vivo half-life [7]: 27 min

PRC[Bip]CGE (cysteine pairing not given here) [Regasepin 1]
IC50 ([2]; ref [8]): 1500 nM | IC50 ([4]; ref [8]): 5000 nM | IC50 ([6]; ref [8]): 3000 nM

Pro-(D-Pyr)-(D-Cys)-Bip-Arg-Gly-Glu [Inhibitor 2]
IC50 ([2]; ref [11]): 2750 nM | IC50 ([4]; ref [11]): 5500 nM | IC50 ([6]; ref [11]): 800 nM

Pro-Pyr-Cys-Bip-Arg-Gly-Glu [Regasepin 2]
IC50 ([2]; ref [9]): 800 nM | Protective effect (survival), positive control ([3]; 35 mg/kg iv 5 minutes after LPS iv, n = 12, Figures 4(b)-4(d)): significant protective effect | Protection from endotoxin shock [8]: protect mice from endotoxin shock | IC50 ([4]; ref [9]): 1500 nM | IC50 ([6]; ref [9]): 10000 nM
